Measurements as given in patent publication US20110100079A1, “METHOD FOR IMPARTING STRESS TOLERANCE TO PLANT” (priority 2007, published 2011).

Experiments:
Type in all cases: in vivo
[1] = tested on: “Momotaro” tomato; experiment: Example 2 temperature stress tolerance imparting test (tomato); conditions: 2 weeks
Method: Other cultivation conditions were the same as the conditions of the temperature stress test. […] (2) Solution culture medium: […] Method of Temperature Stress Tolerance Imparting Test The temperature in a climatic chamber was controlled so as to be 10, 15, or 32° C. The environmental conditions were controlled so as to have an illuminance by a fluorescent light of 5000 Lux and a daily light-dark cycle of a 16-hour light period and a 8-hour dark period. In this test, a temperature of 23° C. at which the optimum growth was observed was regarded as a reference temperature (temperature stress-free test condition), and a stress was imposed by applying a temperature higher or lower than the reference temperature. A tomato as prepared above was planted in a 250 ml polyethylene bottle filled with the solution culture medium (½ Otsuka A formulation). A treatment solution as presented in Table 1 was sprayed onto the leaves or applied to the underground portion. […] Ten specimens were prepared for each of the test plot and the control plots, and a plant stress level and an extent of imparting plant stress tolerance were calculated according to Formula (ii) and (iii) above using as a fresh plant body weight the average of the fresh plant body weights of each specimen 2 weeks after the beginning of the test.

[2] = tested on: “Momotaro” tomato; experiment: Standard test: standard extent of imparting plant salt stress tolerance; conditions: 100 ppm sprayed onto leaves 10 ml/specimen, NaCl 3510 ppm in tap water, fresh weight after 2 weeks vs salt-stressed untreated control plot 1
Method: Standard Test (I) Plant Preparation A 50-cell tray is filled with potting soil (fertilizer components: N:P:K=0.4:1.9:0.6 (g)/kg potting soil); and seeds of a “Momotaro” tomato (Takii Co., Ltd.) are sowed, thinly covered with potting soil, and sufficiently irrigated to allow the seeds to sprout. When the leaves in the 2-leaf stage are fully unfolded, the soil on the tomato roots is washed away with running water, and a test is performed. For the potting soil, Kureha gardening soil manufactured by Kureha Corporation may be used. (II) Test Condition Setting The environmental conditions are controlled such that the temperature is 23° C., the relative humidity is 50%, the illuminance is 5000 Lux, and the daily light-dark cycle includes a 16-hour light period and an 8-hour dark period. Such environmental conditions can be obtained by, for example, controlling the temperature in a room or a climate chamber where the temperature and the relative humidity can be controlled, and controlling illuminance by a fluorescent light or the like. […] (III) Treatment with Plant Stress Tolerance Imparting Composition […] A known surfactant or a like material that barely affects the plant may be used in the preparation of an aqueous dispersion. Test plot: An aqueous solution or an aqueous dispersion of a test compound (sugar derivative-type surfactant) (concentration: 100 ppm) is sprayed onto the leaves in an amount of 10 ml per tomato specimen. […] NaCl is added to a solution culture medium (creating a salt stress), but no test compound (plant stress tolerance imparting composition) is given to the tomato. Control plot 2: No NaCl is added to a solution culture medium (creating no salt stress), and no test compound (plant stress tolerance imparting composition) is given to the tomato. (IV) Calculation of Standard Extent of Imparting Plant Salt Stress Tolerance (%) […] The plant stress level (standard plant salt stress level) attained in the above-described standard test is about 130%. In this regard, the standard plant salt stress level can be calculated according to Formula (ii)′ below.

[3] = tested on: Potato Variety: Toyoshiro; experiment: Example 5 drying stress tolerance imparting test (potato variety Toyoshiro); conditions: 3 weeks
Method: Other cultivation conditions were the same as the conditions of the drying stress test. Drying stress conditions: soil pF value: 2.3, 2.5, or 2.9, cultivation temperature: 23° C., relative humidity: 50%, illuminance: 5000 Lux (fluorescent light), light/dark cycle: 16 hours/8 hours (2) Cultivation Period: 3 weeks (3) Soil: Kureha gardening soil manufactured by Kureha Corporation (fertilizer components: N:P:K=0.4:1.9:0.6 g/kg soil) (4) The chemicals used and the amount of a treatment solution applied were the same as in Example 3. Method of Drying Stress Tolerance Imparting Test A planter (60 cm) was filled with Kureha gardening soil manufactured by Kureha Corporation (fertilizer components: N:P:K=0.4:1.9:0.6 g/kg soil) in a glass greenhouse, tubers of a “Thyoshiro” potato were cut in half: and 5 pieces thereof were planted in the planter, thinly covered with Kureha gardening soil, and sufficiently watered to allow the tubers to sprout. When the leaves in the 3-leaf stage fully unfolded, the Solarium tuberosu was relocated on a plant culture rack in an air-conditioned room, and a test was initiated. […] From immediately after the beginning of the test, a treatment solution of Table 1 was sprayed onto the leaves or applied to the underground portions once a week. […] Five specimens (per planter) were prepared for each of the test plot and the control plots, plant bodies were collected 3 weeks after the beginning of the test such that the roots were not cut, the soil was washed away with running water, the fresh plant body weights were measured, and a plant stress level and an extent of imparting plant stress tolerance were calculated according to Formula (ii) and (iii) above using the average of the weights.

[4] = tested on: “Momotaro” tomato; experiment: Example 4 salt stress tolerance imparting test (tomato, tap water + NaCl); conditions: tap water + NaCl 3510 ppm, 2 weeks
Text: NaCl concentration 3510 ppm (water potential by NaCl: […]) (4) Cultivation period: two weeks (5) Plant preparation: A 50-cell tray was filled with Kureha gardening soil manufactured by Kureha Corporation (fertilizer components: N:P:K=0.4:1.9:0.6 g/kg soil), and seeds of a “Momotaro” tomato were sowed, thinly covered with Kureha gardening soil, and sufficiently irrigated to allow the seeds to sprout. When the leaves in the 2-leaf stage fully unfolded, the soil on the tomato roots was carefully washed away with running water, and a test was performed. (6) The chemicals used and the concentration of a treatment solution were as in Example 1 (7) Amount of application: 10 ml/specimen for leaf spraying, 50 ml/specimen for fertigation Method of Salt Stress Tolerance Imparting Test […]

[5] = pF 2.3, leaf, 100 ppm once a week
[6] = pF 2.5, leaf, 100 ppm once a week
[7] = pF 2.9, leaf, 100 ppm once a week
[8] = pF 2.3, leaf, 200 ppm once a week

Row | Compound | Extent of imparting plant stress tolerance ([1]; 32° C., leaf, 100 ppm) [%] | Standard extent of imparting plant salt stress tolerance [2] [%] | Extent of imparting plant stress tolerance [3, 5] [%] | Extent of imparting plant stress tolerance ([4]; leaf, 100 ppm) [%] | further results
1 | POE (6) sorbitan monooleic acid ester [Product of present invention 10] | 114 | 112 | 113 | 112 | –
2 | Sucrose fatty acid ester (C16, HLB = 15) [Product of present invention 21] | 116 | 117 | 118 | 117 | –
3 | Sucrose fatty acid ester (C18, HLB = 11) [Product of present invention 19] | 114 | 114 | 117 | 114 | –
4 | POE (20) sorbitan monooleic acid ester [Product of present invention 1] | 114 | 113 | 113 | 113 | Extent of imparting plant stress tolerance ([1]; 10° C., leaf, 100 ppm): 125%; Extent of imparting plant stress tolerance ([1]; 10° C., underground portion, 100 ppm): 140%; Extent of imparting plant stress tolerance ([1]; 15° C., leaf, 100 ppm): 117%; Extent of imparting plant stress tolerance ([1]; 15° C., underground portion, 100 ppm): 130%; Extent of imparting plant stress tolerance ([1]; 32° C., leaf, 1 ppm): 113%; Extent of imparting plant stress tolerance ([1]; 32° C., leaf, 10 ppm): 113%; Extent of imparting plant stress tolerance ([1]; 32° C., leaf, 1000 ppm): 119%; Extent of imparting plant stress tolerance ([1]; 32° C., underground portion, 100 ppm): 127%; Extent of imparting plant stress tolerance ([3]; pF 2.3, leaf, 1 ppm once a week): 112%; Extent of imparting plant stress tolerance ([3]; pF 2.3, leaf, 10 ppm once a week): 113%; Extent of imparting plant stress tolerance ([3]; pF 2.3, leaf, 1000 ppm once a week): 119%; Extent of imparting plant stress tolerance ([3]; pF 2.3, underground portion, 100 ppm once a week): 134%; Extent of imparting plant stress tolerance [3, 6]: 115%; Extent of imparting plant stress tolerance ([3]; pF 2.5, underground portion, 100 ppm once a week): 127%; Extent of imparting plant stress tolerance [3, 7]: 124%; Extent of imparting plant stress tolerance ([3]; pF 2.9, underground portion, 100 ppm once a week): 134%; Extent of imparting plant stress tolerance ([4]; leaf, 1 ppm): 112%; Extent of imparting plant stress tolerance ([4]; leaf, 10 ppm): 113%; Extent of imparting plant stress tolerance ([4]; leaf, 1000 ppm): 119%; Extent of imparting plant stress tolerance ([4]; underground portion, 100 ppm): 130%
5 | C[N+](C)(C)CC(=O)[O-] [Comparative product 3, Glycine betaine, reference compound] | 102 | 103 | 102 | 103 | –
6 | Sucrose fatty acid ester (C18, HLB = 15) [Product of present invention 20] | 115 | 116 | 118 | 116 | –
7 | Sucrose fatty acid ester (C18:1, HLB = 15) [Product of present invention 22] | 115 | 118 | 119 | 118 | Extent of imparting plant stress tolerance ([1]; 32° C., leaf, 200 ppm): 113%; Extent of imparting plant stress tolerance [3, 8]: 114%; Extent of imparting plant stress tolerance ([4]; leaf, 200 ppm): 111%
8 | O=C(O)[C@@H]1CCCN1 [Comparative product 2, Proline, reference compound] | 102 | 102 | 102 | 103 | Extent of imparting plant stress tolerance ([1]; 10° C., leaf, 100 ppm): 102%; Extent of imparting plant stress tolerance ([1]; 15° C., leaf, 100 ppm): 102%; Extent of imparting plant stress tolerance [3, 6]: 103%; Extent of imparting plant stress tolerance [3, 7]: 103%
9 | POE (20) sorbitan monolauric acid ester [Product of present invention 12] | 117 | 116 | 117 | 116 | Extent of imparting plant stress tolerance ([1]; 32° C., leaf, 200 ppm): 121%; Extent of imparting plant stress tolerance [3, 8]: 120%; Extent of imparting plant stress tolerance ([4]; leaf, 200 ppm): 117%
10 | POE (20) sorbitan monostearic acid ester [Product of present invention 14] | 118 | 114 | 115 | 114 | –
11 | Sorbitan monooleic acid ester [Product of present invention 11] | 113 | 112 | 113 | 112 | –
12 | Alkyl (C10) polyglycoside [Product of present invention 15] | 115 | 116 | 119 | 116 | Extent of imparting plant stress tolerance ([1]; 32° C., leaf, 200 ppm): 115%; Extent of imparting plant stress tolerance [3, 8]: 116%; Extent of imparting plant stress tolerance ([4]; leaf, 200 ppm): 113%
13 | POE (20) sorbitan monopalmitic acid ester [Product of present invention 13] | 116 | 116 | 118 | 116 | –
